Test results published in publication PMC3274619 (Bioorganic & medicinal chemistry letters, 2012).

Assay: Solubility observed during synthesis and purification
Type: physicochemical
Conditions: cause of yield and purification difficulties

Structure (SMILES): Cc1nc(N)sc1-c1csc(Nc2cc(N(C)C)ccc2Cl)n1 [compound 15, N^2-(2-chloro-5-(dimethylamino)phenyl)-4′-methyl-[4,5′-bithiazole]-2,2′-diamine]
- solubility: poor solubility
